Legend:
[1] = tested on: LPS-activated RAW 264.7 macrophages; test: iNOS and COX-2 expression by Western blot; type: cell-based, murine; conditions: 30 min pretreatment, LPS 24 h
Experimental: Cells were washed twice with ice-cold phosphate-buffered saline (PBS) and lysed on ice for 5 min with lysis buffer (20 mM Tris-HCl, pH 7.5, 150 mM NaCl, 1 mM Na 2EDTA, 1 mM EGTA, 1% Triton X-100, 2.5 mM sodium pyrophosphate, 1 mM beta-glycerophosphate, 1 mM Na 3VO4, 1 µg/ml of leupeptin, 1 mM PMSF, protease inhibitor cocktail). The lysate was then centrifuged at 12,000 x g at 4 °C for 10 min and the pellet discarded. Proteins in the supernatant were separated by SDS-PAGE and electrotransferred to a PVDF membrane (EMD Millipore Corporation), which was then blocked by incubation for 1 h at room temperature in blocking buffer [(5% nonfat milk in PBS containing 0.1% Tween 20 (PBST)], then incubated for 2 h at room temperature with the primary antibody diluted in blocking buffer. After three washes in PBST, the membrane was incubated for 1 h at room temperature with an appropriate HRP-conjugated secondary antibody diluted in blocking buffer and developed using an enhanced chemiluminescence Western blot detection system (EMD Millipore Corporation).
To investigate the inhibitory effect of compounds 1h, 1i, and 1n on the LPS-induced inflammatory response, NO levels in the supernatants of RAW 264.7 macrophages incubated with DMSO (vehicle) or compound 1h, 1i, or 1n for 30 min before, and during, incubation for 24 h with LPS (1 µg/ml) were measured by the Griess reaction. […] We next investigated their effect on the expression of iNOS, the NO producing enzyme, using Western blots.
Figure 2 Effect of polyenylpyrrole derivatives on the expression of inflammatory mediators in LPS-stimulated RAW 264.7 macrophages. In (A) and (C), the cells (5 × 10^5/ml; 1 ml) were incubated for 30 min with 2.5-40 µM compound 1h, 1i, or 1n or DMSO (vehicle), then LPS (1 µg/ml) was added and incubation continued for 24 h, then NO (A) or IL-6 or TNF-α (C) in the culture medium was assayed by the Griess reaction or ELISA, respectively. In (B), cells (5 × 10^5/ml; 1 ml) were pretreated for 30 min with 2.5-40 µM compound 1h or DMSO, then LPS (1 µg/ml) was added and incubation continued for 24 h, then expression of iNOS and COX-2 was measured by Western blotting. The fold increase is the intensity of the band of interest divided by that of the actin band normalized to the corresponding value for the 0 LPS/0 inhibitor control.

[2] = tested on: ATP-activated LPS-primed J774A.1 macrophages; test: Intracellular ROS production (DCF fluorescence), ATP-induced; type: cell-based, murine
Experimental: Intracellular ROS production was measured by detecting the fluorescence intensity of the 2’, 7’-dichlorofluorescein, the oxidation product of 2’, 7’-dichlorofluorescein diacetate (Molecular Probes, Eugene, OR). […] In another, J774A.1 macrophages (5 × 10^5/ml; 0.1 ml) were incubated with LPS (1 µg/ml) for 6 h, then vehicle, compound 1h (20 µM), or DPI (25 µM) was added for 30 min. 2’, 7’-dichlorofluorescein diacetate (2 µM) was then added for 30 min before incubation with ATP (5 mM) for the indicated time; while, in another, the order of addition of compound1h/DPI and LPS was reversed. The fluorescence intensity of 2’, 7’-dichlorofluorescein was detected at an excitation wavelength of 485 nm and an emission wavelength of 530 nm on a microplate absorbance reader (Bio-Rad Laboratories, Inc).
In (A), J774A.1 macrophages (1 × 10^6/ml; 1 ml) were incubated with LPS (1 µg/ml) for 6 h, then with compound 1h (20 µM), the NADPH oxidase inhibitor DPI (25 µM), or DMSO (vehicle) for 30 min in the continued presence of LPS, then 2’,7’-dichlorofluorescein diacetate (2 µM) was added for 30 min, followed by ATP (5 mM) for the indicated time, then ROS levels were determined by measuring the mean fluorescence intensity (MFI) of the fluorophore carboxyl-DCF and expressing this value relative to that at time zero. In (B), J774A.1 macrophages (1 × 10^6/ml; 1 ml) were incubated with compound 1h (20 µM), DPI (25 µM), or DMSO (vehicle) for 30 min, then LPS (1 µg/ml) was added for 6 h; the cells were then incubated with 2’,7’-dichlorofluorescein diacetate (2 µM) for 30 min, then with ATP (5 mM) for the indicated time and ROS levels were measured by detection of the fluorescence intensity of the fluorophore carboxyl-DCF and expressed relative to that at time zero.

[3] = tested on: LPS-activated primary peritoneal macrophages; test: IL-6 and TNF-α secretion by ELISA; type: cell-based, C57BL/6 mice; conditions: 10-40 µM, LPS 1 µg/ml 24 h
Experimental: The effects of the test samples on IL-1β, TNF-α, and IL-6 production were measured by ELISA according to the manufacturer’s instructions. In brief, 50 µl of biotinylated antibody reagent and 50 µl of supernatant were added to a stripwell plate precoated with anti-mouse IL-1β, TNF-α, or IL-6 antibodies, which was then incubated at room temperature for 2 h. After washing the plate three times with washing buffer, 100 µl of diluted streptavidin-HRP concentrate was added to each well and the plate incubated at room temperature for 30 min. […] After addition of 100 µl of stop solution to each well, the absorbance at 450 nm of each well was measured on a microplate reader.
Figure 3 Effect of compound 1h on LPS-induced secretion of IL-6 and TNF-α by J774A.1 macrophages, peritoneal macrophages, and JAWSII dendritic cells. (A) J774A.1 macrophages, (B) peritoneal macrophages, or (C) JAWSII dendritic cells (all 4 × 10^5/ml; 1 ml) were incubated for 30 min with 10-40 µM compound 1h or DMSO, then LPS (1 µg/ml) was added and incubation continued for 24 h, then IL-6 levels (left panels) and TNF-α levels (right panels) in the culture medium were measured by ELISA. The data are expressed as the mean ± SD for three separate experiments. *, **, and *** indicate a significant difference at the level of p < 0.05, p < 0.01, or p < 0.001, respectively, compared to the DMSO/LPS group.

O=c1cc(O)cc(/C=C/C=C/C=C/C=C/c2[nH]ccc2Cl)o1 [compound 1h]
COX-2 expression ([1]; 0-40 µM): did not affect expression of COX-2 | LPS-induced iNOS expression ([1]; 0-40 µM): reduced LPS-induced iNOS expression | Concentration at which reduction of LPS-induced iNOS expression is significant ([1]; Western blot): 5 to 40 µM | ATP-induced ROS production, compound added after LPS priming ([2]; J774A.1, LPS 6 h, then compound 1h 20 µM or DPI 25 µM 30 min, ATP 5 mM 0-40 min): slightly reduced ATP-induced ROS production at 40 min | ATP-induced ROS production, compound added 30 min before LPS priming ([2]; J774A.1, compound 1h 20 µM or DPI 25 µM 30 min, then LPS 6 h, then ATP 5 mM): significantly inhibited ATP-induced ROS production | LPS-induced IL-6 secretion [3]: reduced secretion of IL-6 and TNF-α | LPS-induced TNF-α secretion [3]: reduced secretion of IL-6 and TNF-α

From publication PMC3792051, “Polyenylpyrrole Derivatives Inhibit NLRP3 Inflammasome Activation and Inflammatory Mediator Expression by Reducing Reactive Oxygen Species Production and Mitogen-Activated Protein Kinase Activation” (PLoS ONE, 2013)
